Source: paper PMC13372822 (The EMBO Journal, 2026)
Positions count from the first letter of the chain named.

What was measured:
[1] = biological target: T1, SUCR1 mutants (variant named in the endpoint) (Homo sapiens, UniProt Q9BXA5, F175L); experiment: Calcium mobilization assay, SUCR1 mutants in HEK293 stably expressing Gα16; assay type: cell-based; conditions: for EC50: SUCR1 F175L;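 on Emax: percent of the maximal response to succinate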
T1 construct: The full-length human SUCR1 and mutations were fused after the HA signal peptide and Flag tag; HA signal peptide (N); Flag (N); expressed in transfected cells; host or cells: HEK293 stably expressing Gα16 (pcDNA6.0, transient electroporation)
T1 sequence (Q9BXA5 1-334 F175L): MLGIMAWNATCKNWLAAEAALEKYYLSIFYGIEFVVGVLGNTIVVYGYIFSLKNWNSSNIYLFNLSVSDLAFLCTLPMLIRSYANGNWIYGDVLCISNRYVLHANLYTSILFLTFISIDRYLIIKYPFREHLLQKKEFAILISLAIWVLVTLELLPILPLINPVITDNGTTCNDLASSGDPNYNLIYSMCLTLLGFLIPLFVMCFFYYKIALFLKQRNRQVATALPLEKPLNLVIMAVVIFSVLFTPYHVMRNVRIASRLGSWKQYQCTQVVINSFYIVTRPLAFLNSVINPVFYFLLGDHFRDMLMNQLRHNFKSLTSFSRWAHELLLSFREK
Experimental: (§1) The full-length human SUCR1 and mutations were fused after the HA signal peptide and Flag tag. The constructs were cloned into pcDNA6.0 vector for HEK293 system.
(§2) HEK293 cells were obtained from ATCC (Manassas, VA, USA) and cultured in DMEM supplemented with 10% (v/v) FBS, 100 mg/L penicillin, and 100 mg/L streptomycin in 5% CO2 at 37 °C. For transient transfection, ~2.5 × 10^6 cells were mixed with 2 µg plasmids in 200 µL transfection buffer, and electroporation was carried out with a Scientz-2C electroporation apparatus (Scientz Biotech, Ningbo, China). The experiments were carried out 24 h after transfection. HEK293 cell lines stably expressing Gα16 were constructed by our laboratory.
(§3) For OXGR1, plasmids were transfected into HEK293 (other receptors were transfected into HEK293 stably expressing Gα16) and seeded at a density of 4 × 10^4 per well into 96-well culture plates and incubated for 24 h at 37 °C in 5% CO2. The next day, Cells were incubated with 2 μM/L Fluo-4 AM in HBSS supplemented with 5.6 mM/L D-glucose and 250 μM/L sulfinpyrazone at 37 °C for 45 min. […] Three independent measurements were repeated, i.e., three different transfections, with three technical replicates performed for each experiment. EC50 and Emax values for each curve were calculated by Prism 8.0 software (GraphPad Software).

[2] = biological target: T2, SUCR1 mutants (variant named in the endpoint) (Homo sapiens, UniProt Q9BXA5, F285A/F72Y/Y248F); experiment: as above; assay type: cell-based
T2 construct: The full-length human SUCR1 and mutations were fused after the HA signal peptide and Flag tag; HA signal peptide (N); Flag (N); expressed in transfected cells; host or cells: HEK293 stably expressing Gα16 (pcDNA6.0, transient electroporation)
T2 sequence (Q9BXA5 1-334 F72Y/Y248F/F285A): T1 sequence (Q9BXA5 1-334 F175L) with F72Y, L175F, Y248F, F285A
Experimental: as §1, §2, §3

[3] = biological target: T3, SUCR1 mutants (variant named in the endpoint) (Homo sapiens, UniProt Q9BXA5, F285A/F72Y/L102F); experiment: as above; assay type: cell-based
T3 construct: The full-length human SUCR1 and mutations were fused after the HA signal peptide and Flag tag; HA signal peptide (N); Flag (N); expressed in transfected cells; host or cells: HEK293 stably expressing Gα16 (pcDNA6.0, transient electroporation)
T3 sequence (Q9BXA5 1-334 F72Y/L102F/F285A): T1 sequence (Q9BXA5 1-334 F175L) with F72Y, L102F, L175F, F285A
Experimental: as §1, §2, §3

[4] = biological target: T4, SUCR1 mutants (variant named in the endpoint) (Homo sapiens, UniProt Q9BXA5, F72Y); experiment: as above; assay type: cell-based
T4 construct: The full-length human SUCR1 and mutations were fused after the HA signal peptide and Flag tag; HA signal peptide (N); Flag (N); expressed in transfected cells; host or cells: HEK293 stably expressing Gα16 (pcDNA6.0, transient electroporation)
T4 sequence (Q9BXA5 1-334 F72Y): T1 sequence (Q9BXA5 1-334 F175L) with F72Y, L175F
Experimental: as §1, §2, §3

[5] = biological target: T5, SUCR1 mutants (variant named in the endpoint) (Homo sapiens, UniProt Q9BXA5, F175L/I157M); experiment: as above; assay type: cell-based
T5 construct: The full-length human SUCR1 and mutations were fused after the HA signal peptide and Flag tag; HA signal peptide (N); Flag (N); expressed in transfected cells; host or cells: HEK293 stably expressing Gα16 (pcDNA6.0, transient electroporation)
T5 sequence (Q9BXA5 1-334 I157M/F175L): T1 sequence (Q9BXA5 1-334 F175L) with I157M
Experimental: as §1, §2, §3

[6] = biological target: T6, SUCR1 mutants (variant named in the endpoint) (Homo sapiens, UniProt Q9BXA5, F285A); experiment: as above; assay type: cell-based
T6 construct: The full-length human SUCR1 and mutations were fused after the HA signal peptide and Flag tag; HA signal peptide (N); Flag (N); expressed in transfected cells; host or cells: HEK293 stably expressing Gα16 (pcDNA6.0, transient electroporation)
T6 sequence (Q9BXA5 1-334 F285A): T1 sequence (Q9BXA5 1-334 F175L) with L175F, F285A
Experimental: as §1, §2, §3

OXGR1 = OXGR1 (Homo sapiens, UniProt Q96P68); experiment: Calcium mobilization assay (Fluo-4 AM), wild-type OXGR1 in HEK293; conditions: for signal at concentrations exceeding the reported range: bell-shaped response curve; for activity in OXGR1-transfected HEK293 cells: in words
Experimental: as §1, §2, §3

[7] = system: mock-transfected HEK293 cells; experiment: Calcium assay in mock-transfected (empty vector) HEK293 cells; assay type: cell-based
Source text: Figure. R3 | Activity of the compounds on OXGR1 using calcium assays.
Concentration-response curves of the four agonists in activating OXGR1 through the calcium assays. HEK293 cells were transfected with OXGR1 or empty vector by electroporation.
Cells were then loaded with Fluo-4 AM and intracellular calcium changes after stimulation with different compounds were monitored. Responses were normalized to 100% for the maximal response of each compound on OXGR1. Data are mean ± S.E.M. from three independent experiments (n = 3), with three technical replicates performed for each […]
(1 picture or pasted object on this page, not shown here)

[8] = HEK293, OXGR1 WT, each ligand normalized to WT (100%)
[9] = HEK293, OXGR1 WT, normalized to the maximal response elicited by AKG (100%)

For `C=C(CC(=O)O)C(=O)O` [ITA, itaconate], the EC50 [1] was 340 ± 300 µM, the “ITA responsiveness of SUCR1-F175L” value ([1]; in words) was “partial ITA responsiveness” and the Emax ([2]; HEK293, SUCR1 F72Y-F285A-Y248F, Emax relative to the SUC) was 2.2 ± 2%. The Emax ([3]; HEK293, SUCR1 F72Y-L102F-F285A, Emax relative to the SUC) was 43 ± 5%, the Emax ([4]; HEK293, SUCR1 F72Y, Emax relative to the SUC) was 3 ± 3% and the Emax ([5]; HEK293, SUCR1 F175L-I157M, Emax relative to the SUC) was -3.1 ± 4%. For the same molecule, the Emax ([6]; HEK293, SUCR1 F285A, Emax relative to the SUC) was 6.3 ± 3%, the EC50 (OXGR1; EC50, OXGR1 WT, Gq-mediated calcium signaling (Fig. 1D, Appendix Table S1)) was 83 µM and the Emax (OXGR1; [8]) was 100 ± 10%. The Emax (OXGR1; [9]) was 117 ± 4%, the “signal at concentrations exceeding the reported range” value (OXGR1) was “decrease in signal” and the “activity in OXGR1-transfected HEK293 cells” value (OXGR1) was “robust activity”. For the same molecule, the “activity in mock-transfected cells” value [7] was “no activity”.
For `O=C(O)CCC(=O)O` [SUC, succinate], the EC50 [1] was 18 ± 3 µM, the EC50 ([2]; SUCR1 F72Y-F285A-Y248F) was 2700 ± 780 µM and the EC50 ([3]; SUCR1 F72Y-L102F-F285A) was 3900 ± 1300 µM. It also gave an EC50 ([4]; SUCR1 F72Y) of 1800 ± 300 µM, an EC50 ([5]; SUCR1 F175L-I157M) of 150 ± 9 µM and an EC50 ([6]; SUCR1 F285A) of 3600 ± 800 µM. For the same molecule, the Emax (OXGR1; [8]) was 100 ± 4%, the Emax (OXGR1; [9]) was 154 ± 4% and the “activity in OXGR1-transfected HEK293 cells” value (OXGR1) was “robust activity”. For the same molecule, the “activity in mock-transfected cells” value [7] was “no activity”.
With `O=C(O)CCC(=O)C(=O)O` [AKG, α-ketoglutarate] the Emax ([1]; HEK293) was 3.5 ± 1%, the Emax ([2]; HEK293) was 19 ± 2% and the Emax ([3]; HEK293) was 5 ± 1%. It also gave an Emax ([4]; HEK293) of 4.1 ± 2%, an Emax ([5]; HEK293) of -6.6 ± 3% and an Emax ([6]; HEK293) of 1.7 ± 3%. For the same molecule, the Emax (OXGR1; HEK293) was 100 ± 11%, the “signal at concentrations exceeding the reported range” value (OXGR1) was “decrease in signal” and the “activity in OXGR1-transfected HEK293 cells” value (OXGR1) was “robust activity”. The “activity in mock-transfected cells” value [7] was “no activity”.
